Measured values: patent US20210283215A1, “BACTERIOTHERAPY AGAINST PROPRIONIBACTERIUM ACNES FOR THE TREATMENT OF ACNE” (The Regents of the University of California, priority 2018, published 2021)

Test system: C. acnes C2
Assay: Inhibition of C. acnes C2 growth, 72 h culture
Assay type: cell-based
Details: C. acnes C2, 72 h culture

Substance	concentration inhibiting growth of C. acnes
PSMβ1: phenol soluble modulin beta peptide of S. capitis E12, SEQ ID NO: 9437, individually synthesized (MTKLAEAIANTVKAGQDHDWAKLGTSIVGIAENGIGLLGKVFGF; listed as Staphylococcus capitis)	62 µg/mL
PSMβ4: phenol soluble modulin beta peptide of S. capitis E12, SEQ ID NO: 9443, individually synthesized (MTKLAEAIANAVKAGQDQDWAKLGTSIVGIAENGISLLGKVFGF; listed as Staphylococcus capitis)	125 µg/mL
PSMβ6: phenol soluble modulin beta peptide of S. capitis E12, SEQ ID NO: 9447, individually synthesized (MEKLFDAIRNTVDAGINQDWTKLGTSIVDIVDNGVKVISKFIGA; listed as Staphylococcus capitis)	62 µg/mL
